In the case of `CCOc1c(N)cc(-c2cccc3ccccc23)c2nc(C(=O)O)ccc12`, the melting point lay within 182 to 184 °C.

As for `CCOC1=NS(=O)(=O)C(C#N)=C1OCC`, the melting point fell in the range of 147 to 148 °C. To `O=C(O)c1cccc(P(c2ccccc2)c2ccccc2)n1` belongs 122 °C; to `CCCCCCCC1=CC(=O)N(Cc2ccccc2)C1(O)CBr` (stereo unspecified), 94 to 96 °C; to `O=C(O)CCc1cccc2c1NC(=O)CC2`, 164 to 165 °C. `Cc1cccc(Nc2nc(-c3cccc(C#N)c3)c(-n3cncn3)s2)n1`: the melting point lay within 236 to 237 °C. To `CC(C)CS(=O)(=O)c1ccc(N)c(S(=O)(=O)CC(C)C)c1` belongs 118 to 120 °C; to `COc1ccc2nc(C3=CCN(Cc4ccc(Cl)cc4)CC3)[nH]c2c1`, 203 to 205 °C.

`O=C(O)c1ccc2c(ccn2Cc2cccc([N+](=O)[O-])c2)c1` showed a melting point of 251 to 254 °C. To `Nc1cc(-c2c(-c3ccc(Cl)cc3)nc3cccnn23)ccn1` belongs 252 to 253 °C; to `CCCc1nc2c(N)nc3ccccc3c2n1OCc1ccccc1`, 164 to 166 °C; to `CC1(c2ccccc2)OC(C=Cc2ccc(C#N)cc2)=CC1=O` (stereo unspecified), 187 to 188 °C. In the case of `CC(C)Oc1cc(Oc2ccc(S(C)(=O)=O)cn2)cc2cc(C3=NCC(CCO)S3)[nH]c12` (stereo unspecified), the melting point was in the range of 172 to 173 °C. As for `CCOC(=O)C(C(=O)N(C)C)=C(OCc1ccccc1)c1ccc(Cl)cc1Cl`, the figure is 115 °C; as for `Clc1ccc(CC2(c3ccccc3)OCC(CN3CCCCC3)O2)cc1` (stereo unspecified), 58 °C; as for `O=C(O)c1cnn2c1NC(c1ccccc1)CC2C(F)(F)F` (stereo unspecified), 185 °C. The compound `NC(=O)N(O)CCNS(=O)(=O)c1ccc2ccccc2c1` yielded a melting point of 174 °C. To `CS(=O)(=O)N(Cc1ccncc1)Cc1ccccc1F` belongs 69 to 70 °C; to `CCCCc1c(CNC(=O)OC(C)(C)C)c(CC(C)C)nc2ccc(OCc3ccccc3)cc12`, 131 to 132 °C. As for `CC1CC(=O)NN=C1c1ccc(N2CCN(c3ncccn3)CC2)c(N)c1` (stereo unspecified), the figure is 220 to 221 °C. As for `CN1CCC(O)(c2cc3ccccc3s2)CC1`, the figure is 161 to 163 °C. In turn, `COc1cccc(C(=O)N2C(=O)CN(c3ccccc3)C2=O)c1` had a melting point of 161 to 162 °C.

`COc1ccc(-c2cnn3c(N)c(-c4ccc(F)c(Cl)c4)c(C)nc23)cc1OC` yielded a melting point of 235 to 238 °C. `CCC(=S)c1ccc(NS(C)(=O)=O)c(Oc2ccc(F)cc2F)c1` gave a melting point of 74 to 76 °C.

In the case of `COc1cc2nc(N3CCN(C(=S)Nc4ccccc4)CC3)nc(N)c2cc1OC`, the melting point was 138 to 140 °C. The compound `CC(C)(C)NC(=O)c1ccc(-c2cccc3cncn23)cc1` displayed a melting point of 128 to 131 °C.

For the compound `Clc1ccc2c(c1)C(c1ccccc1Cl)OCc1nnc(Br)n1-2` (stereo unspecified), the melting point was 167 to 168 °C. `Cc1cc(C)c2nccn2n1` registered a melting point of 70 to 74 °C. As for `Cc1c(C2CCC(c3ccccc3)(N(C)C)CC2)[nH]c2ccc(C#N)cc12` (stereo unspecified), the figure is 235 to 240 °C. As for `O=C1CCC(N2CCC(n3c(=O)[nH]c4ccccc43)CC2)CC1`, the melting point fell in the range of 221 to 223 °C.

Consider `Clc1ccc(-c2cc(C3CCNCC3)n[nH]2)cc1`, for which the melting point was 174 to 176 °C.

In the case of `COc1ccccc1Oc1c(Cl)nc(-c2ccncc2)nc1NS(=O)(=O)c1ccc(C)cn1`, the melting point lay within 177 to 179 °C. To `Cc1ccc(S(=O)(=O)OCc2c([N+](=O)[O-])cccc2[N+](=O)[O-])cc1` belongs 98 to 99 °C. As for `O=C(O)CNC(=O)c1nc2ccc(Oc3ccccc3)cc2cc1O`, the figure is 225 to 227 °C. To `COc1ccc2cc(-c3cnc(-c4ccccc4)o3)ccc2c1` belongs 149 to 151 °C; to `CCC(=O)N(N(CCCl)S(C)(=O)=O)S(C)(=O)=O`, 97 to 98 °C; to `COC(=O)CCC1CCCCCCCCCCC1=O` (stereo unspecified), 33 to 35 °C. For the compound `CC(C)c1noc(-c2c(Cl)ccc(C(=O)c3cnn(C)c3O)c2Cl)n1`, the melting point fell in the range of 138 to 144 °C. Consider `Cc1noc2ccc(Oc3ncccc3C(=O)NCC3CCC(C(C)(C)O)CC3)cc12` (stereo unspecified), for which the melting point is 135 to 137 °C.

For `CCOc1ccc(-c2ccc(C3(O)CN4CCC3CC4)cc2)cc1` (stereo unspecified), the melting point lay within 199 to 200 °C. As for `CCc1nc2c(C)cc(C)nc2n1Cc1ccc2c(c1)c1ccccc1n2CCC#N`, the figure is 180 to 181 °C.

Regarding `CC(=O)NC1CCCC1CC(Cl)C#N` (stereo unspecified), the melting point lay in the range of 114 to 117 °C. In turn, `Cc1ccc2c(C(=O)O)csc2c1` registered a melting point of 205 to 209 °C. As for `CCOC(C)O[C@H]1C(=O)N[C@H]1c1ccccc1` (stereo partly specified), the melting point lay within 78 to 80 °C. `CNc1nc(SC)ncc1Cl` yielded a melting point of 241 °C.

For `O=C(O)c1cn(C2CC2)c2cc(Cl)ncc2c1=O`, the melting point was in the range of 226 to 227 °C. For the compound `OC1(c2ccc(C3OCCO3)cc2)CCCCC1`, the melting point fell in the range of 95 to 97 °C. To `CC(=CC#N)c1cccc2cc[nH]c12` belongs 88 to 90 °C; to `CC(C)[C@H](NC(=O)OCc1ccccn1)C(=O)O`, 116 to 118 °C; to `Nc1cccc2nc(=O)cccc12`, 175 to 178 °C. To `CNC(=O)Nc1snc(N(C)C)c1C#N` belongs 240 to 241 °C; to `O=C(N[C@H]1CC[C@H](CCN2CCN(c3nccc4c3OCC4)CC2)CC1)c1ccc2ncccc2c1`, 212 °C; to `NC(=O)c1cccc(OCCCCCCCc2ccsc2)c1`, 97 to 100 °C. To `O=CC1c2ccccc2C(C=O)c2cc(Cl)ccc21` (stereo unspecified) belongs 113 to 115 °C; to `C=CS(=O)(=O)c1ccc(C(=O)O)cc1`, 228 °C; to `CN1CCN(c2cccc3ccc(C(O)(c4ccccc4)c4ccccc4)cc23)CC1`, 218 °C. For `N#Cc1cc(CCNc2ncnc3c(F)ccc(F)c23)ccc1Oc1cc(C(F)(F)F)ccn1`, the melting point fell in the range of 157 to 159 °C.

`Nc1ccc(Sc2ccccn2)cc1C(F)(F)F` showed a melting point of 132 to 133 °C. As for `CCn1c(=O)c2c(nc(C=Cc3cccc(C(=O)O)c3)n2C)n(CC)c1=O`, the figure is 260 to 262 °C; as for `O=C1C(O)=C(O)C(=O)c2cc(Cl)ccc21`, 228 to 229 °C; as for `CCOC(=O)CN(CP(=O)(ONC1CCCCC1)ONC1CCCCC1)C(=O)C(F)(F)F`, 118 to 123 °C. `CC(=O)Nc1ccc2ccccc2c1-c1c(P(=O)(c2ccccc2)c2ccccc2)ccc2ccccc12` registered a melting point of 95.4 °C. As for `Clc1ccc(-c2c(CC3NCCS3)cnn2-c2ccccc2)cc1` (stereo unspecified), the figure is 170 to 172 °C; as for `CCOCn1c(Cc2ccccc2)c(C(C)C)c(=O)[nH]c1=O`, 111 °C; as for `Cc1nc(CNC=O)ccc1OCc1ccccc1`, 67 to 68 °C. To `CCc1[nH]n(C2CCCC2)c2nc(Cc3ccc(OCCN4CCOCC4)cc3)nc(=O)c1-2` belongs 136 to 137 °C. Compound `COc1ccc(Oc2cccc(C(=O)NCCN(O)C(N)=O)c2)cc1` registered a melting point of 160 to 162 °C. To `COc1cc(OC)nc(C(C)c2ccccc2N)n1` (stereo unspecified) belongs 136 to 139 °C. Take `Cc1cc(C)c2c(n1)Nc1cc(C)c(C)cc1NC2=O`: the melting point was in the range of 264 to 268 °C. On to `C/C(=C\C=O)c1ccc(OCc2nc(-c3ccccc3)oc2C)cc1`, for which the melting point fell in the range of 94 to 95 °C. To `COC1(c2ccccc2)N=CC(=O)N(C)c2ccc([N+](=O)[O-])cc21` (stereo unspecified) belongs 163 to 164 °C.

As to `Cc1c(C)c2c(c(C)c1NC(=O)c1ccc(C(=O)O)cc1)C(c1ccc(C(C)C)cc1)C(C)(C)O2` (stereo unspecified), the melting point fell in the range of 258 to 261 °C. As for `O=[N+]([O-])c1cnc2ccc(SC(c3ccccc3)(c3ccccc3)c3ccccc3)nn12`, the figure is 168 to 170 °C. As for `CCCCCCCCCCCCCCOc1cc(OCCCCCCc2cccc(OCc3ccccc3)c2OCc2ccccc2)cc(C(=O)O)c1`, the figure is 75 to 77 °C; as for `CC(=O)Oc1c(C)c(C)c2c(c1C)C(O)CC(C)(COc1ccc([N+](=O)[O-])cc1)O2` (stereo unspecified), 139 to 141 °C; as for `Cc1ccc(CCCOc2c(C)cc(-c3nnn(C)n3)cc2C)nn1`, 114 to 115 °C. As for `COc1cc2nc(N)nc(-c3ccccc3Br)c2cc1OC`, the figure is 241 to 243 °C.

As for `Cc1cc(O)c(C)c(C)c1NC=O`, the melting point lay in the range of 219 to 220 °C. `COc1c(C#N)c2c(c3c1OC(C)(C)C3)C(c1ccccc1)=NC(C)(C)C2` yielded a melting point of 166 to 168 °C. As for `Cc1cc(C(C)c2ccccc2)c(O)c(-n2nc3ccc(Cl)cc3n2)c1` (stereo unspecified), the figure is 113 to 115 °C; as for `O=C1c2ccccc2C(=O)c2c(NCCN3CCOCC3)ccc(NCCN3CCOCC3)c21`, 158 to 159 °C. Take `CCC(C)SC1=C(C#N)C(c2ccccc2)(c2ccccc2)C(=O)N1` (stereo unspecified): the melting point was in the range of 155 to 156 °C. Compound `CCCCCCCC(c1cc(C)ccc1O)c1cc(C)ccc1O` yielded a melting point of 108 to 109 °C. Turning to `CNC(=O)c1ccccc1Nc1nc(Nc2cc3c(cc2OC)CCN(CCOC)CC3)ncc1Br`, the melting point lay within 171 to 175 °C.

Turning to `CC(C)=CCOC(C)C1CC=C2C3=C(CCC21C)C1(C)CCC(OC(=O)CCC(=O)O)C(C)(C)C1CC3` (stereo unspecified), the melting point fell in the range of 60 to 67 °C. To `CCCCC(CC)COC(=O)c1cccc(S(N)(=O)=O)c1` (stereo unspecified) belongs 40 to 42 °C; to `COc1ccc2c3c1OC1C(O)C(C)(C)C(C)C4C(C2)N(C)CCC314` (stereo unspecified), 110 to 112 °C.

As for `C=CCn1c(Nc2cc(C(F)(F)F)ccc2C(F)(F)F)nc(C(F)(F)F)cc1=O`, the melting point lay within 116 to 118 °C.

The compound `COc1cc(CNC(=O)c2nc3cnn(CCOc4ccc(C(=O)O)cc4)c3c(=O)[nH]2)ccc1F` gave a melting point of 228 to 230 °C.

Take `O=C(O)C(=O)c1ccc(OCCCc2ccc3ccccc3c2)cc1`: the melting point fell in the range of 123 to 124 °C. As for `Cc1oc2cc(C(CC(=O)O)CC(=O)O)ccc2c1C`, the figure is 190 to 192 °C.
